Source: patent US20070213291A1, “Therapeutically useful synthetic oligonucleotides” (priority 1999, published 2007)

What was measured:
Assay type in all cases: cell-based
[1] = test system: Jurkat human leukemia T cells; assay: Inhibition of Jurkat human leukemia T cell proliferation (MTT reduction); conditions: for % INHIBITION of Jurkat human leukemia T cell proliferation: 100 μg/ml sequence, 48 h, 2.5×10^5 cells/ml
Procedure: Cells were seeded in 6 (1 ml/well), 24 (0.5 ml/well) or 96 (0.1 ml/well) well flat-bottom microplates and were maintained at 37° C. in a 5% CO2 atmosphere. Unless stated otherwise, 2.5×10^5 cells/ml were incubated with 0 μg/ml (control) and 100 μg/ml (treated) of 2 to 45 base sequences containing A, C, G and T for 48 h.
MTT was measured at a wavelength of 570 nm using a multiplate spectrophotometer reader (ELX800, Bio-TEK Instruments Inc., Winooski, Vt.).
Jurkat human leukemia T cells are an atypical multi-drug resistant human suspension tumor cell model.

[2] = test system: THP-1 human acute monocytic leukemia cells; assay: Cytokine production by THP-1 cells (ELISA); conditions: THP-1, 1×10^6 cells, 100 μg/ml, 48 h; for ↑ IL-12 (fold increase treated vs control cells): p70 complex and free p40
Procedure: (§1) Unless stated otherwise, 1×10^6 cells were incubated with 100 μg/ml of each of the sequences tested for 48 h at 37° C. in 5% CO2. Production of cytokines IL-6, IL-10, IL-12, IL-1beta and TNF-alpha was determined in pg/ml in 100 μl of culture supernatant using the appropriate commercial ELISA (BioSource, Camarillo Calif.). The IL-12 ELISA measures both IL-12 p70 complex and free p40 subunit. Results are expressed as the “fold” (×) increase in cytokine production by treated cells compared to control cells.
THP-1 human acute monocytic leukemia cells were incubated with 2, 3, 6, 9, 12, 14, 15 and 18 base GT sequences and production of the cyotkine IL-6 was determined (Table 35).
THP-1 human acute monocytic leukemia cells were incubated with 6 base GT, AG, CG, GG, AGT and CGT sequences and production of the cytokines IL-12 and IL-6 was determined (Table 36).
THP-1 human acute monocytic leukemia cells were incubated with 6 base GT sequences, having either an oxygen (phosphodiester) or a sulfur (phosphorothioate) as the nonbridging atom on the phosphate groups and production of the cytokine IL-12 was determined (Table 39).
THP-1 human acute monocytic leukemia cells were incubated with 6 base GT SEQ ID NO:25, having either an oxygen (phosphodiester) or a sulfur (phosphorothioate) as the nonbridging atom on the phosphate groups and production of the cytokine IL-12 was determined (Table 40).

[3] = test system: human peripheral blood mononuclear cells; assay: Cytokine production by human PBMC (ELISA); conditions: PBMC of 7 healthy humans, 100 μg/ml, 48 h
Procedure: as §1
Peripheral blood mononuclear cells (hereinafter, “PBMCs”) were isolated from 7 healthy humans by Ficoll-Hypaque (Amersham Pharmacia Biotech, Baie d'Urfée, Québec, Canada) by density gradient centrifugation of whole blood. PBMCs were incubated with 6 base GT, AGT, CGT, AG, CG and GG sequences and production of the cytokines IL-1beta, IL-6, IL-10 and IL-12 were determined.

[4] = test system: Jurkat human leukemia T cells; assay: Cell cycle stage in Jurkat cells (propidium iodide flow cytometry); conditions: Jurkat, 24 h, 100 μg/ml
Procedure: Cell cycle stage was determined using a […]™ PLUS DNA commercial kit (Becton Dickinson). Briefly, nuclei from cells were obtained by dissolving the cell membrane in a nonionic detergent, eliminating the cell cytoskeleton and nuclear proteins with trypsin, digesting the cellular RNA with RNase and stabilizing the nuclear chromatin with spermine. Propidium iodide was added to the cell nuclei and their fluorescence was analyzed in a flow cytometer equipped with electronic doublet discrimination capability (FACSCalibur, Becton Dickinson, San Jose, Calif.). Accumulation of cells in G0/G1, early S (SE), mid S (SM), late S (SL) or G2/M phases of the cell cycle was analyzed using MODFIT LT software (Verity Software House Inc., Topsham, Mass.).
Exponentially growing Jurkat human leukemia T cells (Table 28) and MCF-7 human breast cancer cells (5×10^5 cells/ml) (Table 29) were incubated for 24 h with 2, 6, 15, 18, 27 and 45 base sequences containing A, C, G and T. The cells were collected and centrifuged and cell cycle stage was determined.
Jurkat human cell leukemia T cells (1×10^6 cells/ml) were incubated for 24 h with 6 base GT SEQ ID NO:25, conplementary 6 base AC SEQ ID NO:79 and 6 base GT SEQ ID NO:25+6 base AC SEQ ID NO:79. GT SEQ ID NO:25 and AC SEQ ID NO:79 were hybridized by mixing the oligonucleotides (1:1) and heating for 10 minutes at 65° C. As controls, GT SEQ ID NO:25 and AC SEQ ID NO:79 were heated for 10 minutes at 65° C. (Table 30).

Row | Molecule | % INHIBITION of Jurkat human leukemia T cell proliferation [1] [%] | ↑ IL-12 (fold increase treated vs control cells) [2] [x] | ↑ IL-6 (fold increase treated vs control cells) [2] [x] | also measured
1 | TGTGTGTGTGTGTGTGTGTGTGTG [SEQ ID NO:21] | 54 | – | – | –
2 | GTGGGG [SEQ ID NO:48] | 26 | – | – | –
3 | GCCGAGAAGGTGCGCAACCTGCCGGCTGGCCACGGACTGAACGCT (unmodified DNA) [BCG A-7, reference compound] | 4 | 0.5 | – | –
4 | CGACTACAACGGCTGGGATATCAACACCCCGGCGTTCGAGTGGTA (unmodified DNA) [BCG ALPHA-1, reference compound] | 10 | 1.1 | 2.1 | –
5 | TGTGTGTGTGTG [SEQ ID NO:13] | 49 | – | 5.7 | IL-1 beta fold increase: mean +/− SD [3]: 2.4 +/− 1.9 fold increase; IL-6 fold increase: mean +/− SD [3]: 12.1 +/− 6.5 fold increase; IL-10 fold increase: mean +/− SD [3]: 1.2 +/− 0.4 fold increase; IL-12 fold increase: mean +/− SD [3]: 4.4 +/− 5.3 fold increase
6 | ACGCCGACGTCGTCTGTGGTGGGGTGTCTACCGCCAACGCGACGG (unmodified DNA) [BCG M-3, reference compound] | 22 | 1.6 | 2.5 | –
7 | TGTGTGTGT (unmodified DNA) [SEQ ID NO:11] | 45 | – | 5.4 | –
8 | GGGTTT [SEQ ID NO:40] | 31 | −1.2 | 14.0 | –
9 | TGGGTGG (unmodified DNA) [SEQ ID NO:64] | 55 | – | – | –
10 | TCTCTCTCTCTCTCTCTCTCTCTCTCT (unmodified DNA) [SEQ ID NO:6] | 0 | – | – | –
11 | GTGTGTGTGTGTGTGTGTGTGTGTGTG (DNA, backbone not given here; further chemistry not fully specified) [SEQ ID NO:1 phosphorothioate] | – | – | – | % of cells in phase: G0/G1 [4]: 33.7%; % of cells in phase: G2/M [4]: 24.5%; % of cells in phase: SE [4]: 17.6%; % of cells in phase: SL [4]: 11.0%; % of cells in phase: SM [4]: 13.2%; Arrest (cell cycle) [4]: None
12 | TGTGTGTGTGTGTGTGTGTGTGTGTG (DNA TGTGTGTGTGTGTGTGTGTGTGTGTGT; unmodified DNA) [SEQ ID NO:5] | 45 | – | – | –
13 | GGAGGG (unmodified DNA) [SEQ ID NO:47] | 14 | – | – | –
14 | N.N.[Cl][Pt][Cl] [Cisplatin, reference compound] | – | – | – | % INHIBITION of Jurkat proliferation, Cisplatin 0.1 μg/ml ([1]; cisplatin 0.1 μg/ml, alone or with sequence at 1.0 μg/ml): 7%; % INHIBITION of Jurkat proliferation, Cisplatin 1.0 μg/ml ([1]; cisplatin 1.0 μg/ml, alone or with sequence at 1.0 μg/ml): 29%; % INHIBITION of Jurkat proliferation, Cisplatin 10.0 μg/ml ([1]; cisplatin 10.0 μg/ml, alone or with sequence at 1.0 μg/ml): 73%
15 | GTGTGTGTG (chemistry not given here) [SEQ ID NO:12] | 47 | – | 5.4 | –
16 | CCGTGG [SEQ ID NO:34] | 37 | 0.0 | 10.8 | –
17 | TGTGTGTGTGTGTG (chemistry not given here) [SEQ ID NO:15] | 47 | – | 1.0 | proliferation, cell cycle arrest and apoptosis of Jurkat T cells (summary in words) ([1]; M. phlei murA derived sequences): did not inhibit proliferation of, induce cell cycle arrest in or induce apoptosis of Jurkat T cells
18 | AAAGAGGGGCATGACCCGGTGCGGGGGTTCTTGCACTCGGCATAG (unmodified DNA) [BCG A-1, reference compound] | 6 | 1.9 | 2.6 | % of cells in phase: G0/G1 [4]: 19.8%; % of cells in phase: G2/M [4]: 12.0%; % of cells in phase: SE [4]: 31.7%; % of cells in phase: SL [4]: 14.0%; % of cells in phase: SM [4]: 22.5%; Arrest (cell cycle) [4]: Mid SM
19 | GGGTGGT (unmodified DNA) [SEQ ID NO:65] | 48 | – | – | –

Row | Molecule | % INHIBITION of Jurkat human leukemia T cell proliferation [1] [%] | ↑ IL-12 (fold increase treated vs control cells) [2] [x] | ↑ IL-6 (fold increase treated vs control cells) [2] [x] | also measured
20 | TGTGTGTGTGTGTGTGTGTGT (unmodified DNA) [SEQ ID NO:19] | 60 | – | – | –
21 | GGGTGGG (unmodified DNA) [SEQ ID NO:63] | 28 | – | – | –
22 | GAGTGA [SEQ ID NO:32] | 24 | 1.8 | 5.8 | –
23 | CGGTGC [SEQ ID NO:38] | 16 | 0.2 | 6.9 | –
24 | GTGT (unmodified DNA) [SEQ ID NO:54] | 42 | – | – | –
25 | GTGTGTGTGTGTGTGTGTGTGTGT [SEQ ID NO:22] | 56 | – | – | –
26 | GGGTCT [SEQ ID NO:33] | 15 | 1.2 | 3.1 | –
27 | GGGTCC [SEQ ID NO:35] | 20 | 1.9 | 21.3 | –
28 | ACGAGACCACCATCGTCGAGGGCGCCGGTGACACCGACGCCATCG (unmodified DNA) [BCG A-6, reference compound] | 21 | 2.1 | 3.9 | –
29 | GTGTGTGTGTGTGTG (unmodified DNA) [SEQ ID NO:16] | 58 | – | 2.6 | –
30 | TTGG (unmodified DNA) [SEQ ID NO:55] | 44 | – | – | –
31 | TGTT (unmodified DNA) [SEQ ID NO:57] | 32 | – | – | –
32 | TTGT (unmodified DNA) [SEQ ID NO:53] | 25 | – | – | –
33 | AGGTGA [SEQ ID NO:31] | 10 | 1.9 | 4.9 | % of cells in phase: G0/G1 [4]: 35.2%; % of cells in phase: G2/M [4]: 17.1%; % of cells in phase: SE [4]: 29.1%; % of cells in phase: SL [4]: 8.2%; % of cells in phase: SM [4]: 10.4%; Arrest (cell cycle) [4]: Mid SE
34 | GGTT (unmodified DNA) [SEQ ID NO:58] | 37 | – | – | –
35 | GTGTGTGTGTGTGTGTGTGTG (unmodified DNA) [SEQ ID NO:20] | 46 | – | – | –
36 | TTGTGG [SEQ ID NO:39] | 35 | 0.0 | 6.6 | % INHIBITION of Jurkat proliferation at suboptimal concentration ([1]; 5.0 μg/ml of each 6 base sequence, alone or two together): 4%
37 | TGTG (unmodified DNA) [SEQ ID NO:59] | 52 | – | – | –
